Assays:
human Nav1.8 = human Nav1.8 (Homo sapiens (Human), UniProt Q9Y5Y9); test: E-VIPR optical membrane potential assay with electrical stimulation; format: cell-based; conditions: HEK cells expressing human Nav1.8
[1] = Microsomal stability assay, human liver microsomes (HLM); format: in vitro ADME; conditions: human liver microsomes 0.5 mg/mL, 1 uM substrate, 2 mM NADPH, 37° C., referenced against time zero control
Description: (§1) Microsomal Stability Assay.
(§2) Compounds were incubated at 37° C. and shaken for 30 minutes in a phosphate buffered solution with either rat or human liver microsomes and the cofactor NADPH. A time zero control was similarly prepared, however with NADPH excluded. The final incubation concentrations were 1 uM substrate (0.2% DMSO), 0.5 mg/mL liver microsome, 2 mM NADPH, and 0.1 M phosphate. Reactions were quenched and proteins precipitated with the addition of 2 volume equivalents of ice cold acetonitrile containing an internal standard. Following a centrifugation step, aliquots from the quenched incubations were further diluted with 4 volume equivalents of a 50% aqueous methanol solution and then subjected to LC/MS/MS analysis for quantitation of parent compound. Microsome stability values were calculated as the percent of substrate remaining after 30 minutes referenced against the time zero control.
(§3) Microsomal stability in rat and human liver microsomes were determined for selected compounds of the present invention using the above assay. Table 4 provides the human liver microsomes (“HLM”) and rat liver microsomes (“RLM”) stability data as the percent of compound remaining after 30 minutes referenced against the time zero control.

[2] = Microsomal stability assay, rat liver microsomes (RLM); format: in vitro ADME; conditions: rat liver microsomes 0.5 mg/mL, 1 uM substrate, 2 mM NADPH, 37° C., referenced against time zero control
Description: as §1, §2, §3

human Nav1.8, sequence (Q9Y5Y9 whole entry): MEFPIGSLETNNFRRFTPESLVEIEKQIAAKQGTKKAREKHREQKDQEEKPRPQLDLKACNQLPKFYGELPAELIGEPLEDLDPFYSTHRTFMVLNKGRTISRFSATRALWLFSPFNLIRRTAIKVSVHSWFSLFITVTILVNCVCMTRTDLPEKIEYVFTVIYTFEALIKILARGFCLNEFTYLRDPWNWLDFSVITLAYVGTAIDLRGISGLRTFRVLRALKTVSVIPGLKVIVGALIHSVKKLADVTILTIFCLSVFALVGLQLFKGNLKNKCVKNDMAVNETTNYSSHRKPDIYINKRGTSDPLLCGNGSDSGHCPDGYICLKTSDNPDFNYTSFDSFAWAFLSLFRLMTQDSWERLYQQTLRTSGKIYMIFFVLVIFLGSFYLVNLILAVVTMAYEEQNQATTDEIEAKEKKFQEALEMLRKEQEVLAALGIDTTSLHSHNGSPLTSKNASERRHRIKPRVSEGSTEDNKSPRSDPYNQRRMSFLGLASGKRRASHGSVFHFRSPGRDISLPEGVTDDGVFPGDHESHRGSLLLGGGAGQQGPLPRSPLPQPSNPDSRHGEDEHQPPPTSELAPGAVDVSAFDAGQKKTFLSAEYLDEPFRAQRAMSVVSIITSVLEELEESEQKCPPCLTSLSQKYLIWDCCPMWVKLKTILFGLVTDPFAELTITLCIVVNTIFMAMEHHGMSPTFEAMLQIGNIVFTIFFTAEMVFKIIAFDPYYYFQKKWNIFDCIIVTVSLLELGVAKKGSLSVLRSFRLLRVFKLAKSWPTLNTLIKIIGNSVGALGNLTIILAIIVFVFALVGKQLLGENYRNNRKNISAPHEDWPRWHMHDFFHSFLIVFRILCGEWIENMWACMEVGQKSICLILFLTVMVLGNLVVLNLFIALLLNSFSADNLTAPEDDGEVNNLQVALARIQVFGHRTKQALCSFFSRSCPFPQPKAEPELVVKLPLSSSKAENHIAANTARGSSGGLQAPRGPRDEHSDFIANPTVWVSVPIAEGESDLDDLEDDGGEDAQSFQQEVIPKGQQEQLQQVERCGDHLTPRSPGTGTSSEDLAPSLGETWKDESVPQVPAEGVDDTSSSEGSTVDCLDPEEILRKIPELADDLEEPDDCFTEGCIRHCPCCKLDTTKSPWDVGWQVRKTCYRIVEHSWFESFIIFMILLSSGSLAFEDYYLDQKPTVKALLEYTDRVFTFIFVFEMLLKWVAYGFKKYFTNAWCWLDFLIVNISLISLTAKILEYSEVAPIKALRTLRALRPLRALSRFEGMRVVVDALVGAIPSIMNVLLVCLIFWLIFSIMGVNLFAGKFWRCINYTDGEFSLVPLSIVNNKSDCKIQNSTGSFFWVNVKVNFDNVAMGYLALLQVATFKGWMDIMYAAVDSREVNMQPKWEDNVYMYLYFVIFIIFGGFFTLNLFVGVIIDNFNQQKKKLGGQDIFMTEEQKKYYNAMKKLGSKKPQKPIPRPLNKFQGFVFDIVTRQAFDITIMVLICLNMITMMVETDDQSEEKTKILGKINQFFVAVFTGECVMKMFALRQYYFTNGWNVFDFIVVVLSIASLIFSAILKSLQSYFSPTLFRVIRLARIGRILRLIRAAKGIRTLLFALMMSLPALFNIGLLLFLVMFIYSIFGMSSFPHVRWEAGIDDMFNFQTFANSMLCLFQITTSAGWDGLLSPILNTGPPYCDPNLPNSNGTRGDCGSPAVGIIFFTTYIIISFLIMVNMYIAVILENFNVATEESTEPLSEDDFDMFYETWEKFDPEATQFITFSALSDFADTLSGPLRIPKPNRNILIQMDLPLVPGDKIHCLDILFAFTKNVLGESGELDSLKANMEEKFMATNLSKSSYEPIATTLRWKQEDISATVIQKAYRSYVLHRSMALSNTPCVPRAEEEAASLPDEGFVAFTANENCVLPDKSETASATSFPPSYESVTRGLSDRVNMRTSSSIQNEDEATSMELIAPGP

IC50 (human Nav1.8) [nM] | HLM (% remaining @ 30 minutes) [1] [%] | RLM (% remaining @ 30 minutes) [2] [%] | Structure (SMILES)
51 | 100 | 97 | O=C(Nc1cc[nH]c(=O)c1)c1cc(OC(F)(F)F)ccc1Oc1ccc(F)cc1Cl [Compound 37, 2-(2-chloro-4-fluorophenoxy)-N-(2-oxo-1,2-dihydropyridin-4-yl)-5-(trifluoromethoxy)benzamide]
3 | 91 | 90 | COc1cc(F)ccc1Oc1cc(C(F)(F)C(F)(F)F)ccc1C(=O)Nc1cc[nH]c(=O)c1 [Compound 111, 2-(4-fluoro-2-methoxyphenoxy)-N-(2-oxo-1,2-dihydropyridin-4-yl)-4-(perfluoroethyl)benzamide]
6 | 105 | 102 | O=C(Nc1cc[nH]c(=O)c1)c1cc(Cl)c(Cl)cc1Oc1ccc(F)cc1 [Compound 113, 4,5-dichloro-2-(4-fluorophenoxy)-N-(2-oxo-1,2-dihydropyridin-4-yl)benzamide]
26 | 101 | 104 | O=C(Nc1cc[nH]c(=O)c1)c1cc(C(F)(F)F)ccc1Oc1ccc(F)c(F)c1F [Compound 90, N-(2-oxo-1,2-dihydropyridin-4-yl)-5-(trifluoromethyl)-2-(2,3,4-trifluorophenoxy)benzamide]
58 | 101.5 | 102 | O=C(Nc1cc[nH]c(=O)c1)c1ccc(C(F)(F)F)cc1Oc1ccc(F)cc1CO [Compound 157, 2-(4-fluoro-2-(hydroxymethyl)phenoxy)-N-(2-oxo-1,2-dihydropyridin-4-yl)-4-(trifluoromethyl)benzamide]
36 | 101 | 98 | O=C(Nc1cc[nH]c(=O)c1)c1ccc(C(F)(F)F)cc1Oc1ccc(OC(F)F)cc1 [Compound 82, 2-(4-(difluoromethoxy)phenoxy)-N-(2-oxo-1,2-dihydropyridin-4-yl)-4-(trifluoromethyl)benzamide]
13 | 100 | 95.5 | O=C(Nc1cc[nH]c(=O)c1)c1cc(C(F)(F)F)ccc1Oc1ccc(OC(F)(F)F)cc1 [Compound 72, N-(2-oxo-1,2-dihydropyridin-4-yl)-2-(4-(trifluoromethoxy)phenoxy)-5-(trifluoromethyl)benzamide]
1 | 91 | 82 | COc1cc(F)ccc1Oc1cc(Cl)c(Cl)cc1C(=O)Nc1cc[nH]c(=O)c1 [Compound 114, 4,5-dichloro-2-(4-fluoro-2-methoxyphenoxy)-N-(2-oxo-1,2-dihydropyridin-4-yl)benzamide]
95 | 100 | 110 | O=C(Nc1cc[nH]c(=O)c1)c1cc(OC(F)(F)F)ccc1Oc1ccc(F)cc1F [Compound 33, 2-(2,4-difluorophenoxy)-N-(2-oxo-1,2-dihydropyridin-4-yl)-5-(trifluoromethoxy)benzamide]
30 | 98 | 72 | Cc1cc(F)ccc1Oc1ccc(Cl)cc1C(=O)Nc1cc[nH]c(=O)c1 [Compound 68, 5-chloro-2-(4-fluoro-2-methylphenoxy)-N-(2-oxo-1,2-dihydropyridin-4-yl)benzamide]
54 | 100 | 104 | O=C(Nc1cc[nH]c(=O)c1)c1cc(C(F)(F)F)ccc1Oc1ccc(F)cc1 [Compound 2, 2-(4-fluorophenoxy)-N-(2-oxo-1,2-dihydropyridin-4-yl)-5-(trifluoromethyl)benzamide]
653 | 38 | 50 | CC(C)(C)c1ccc(C(=O)Nc2ccc(=O)[nH]c2)c(Oc2ccc(C(F)(F)F)nc2)c1 [Compound 142, 4-(tert-butyl)-N-(6-oxo-1,6-dihydropyridin-3-yl)-2-((6-(trifluoromethyl)pyridin-3-yl)oxy)benzamide]
28 | 107 | 107 | O=C(Nc1cc[nH]c(=O)c1)c1cc(C(F)(F)F)ccc1Oc1ccc(F)cc1Cl [Compound 29, 2-(2-chloro-4-fluorophenoxy)-N-(2-oxo-1,2-dihydropyridin-4-yl)-5-(trifluoromethyl)benzamide]
54 | 97 | 93 | O=C(Nc1cc[nH]c(=O)c1)c1cc(C(F)(F)F)ccc1Oc1ccccc1OC(F)F [Compound 76, 2-(2-(difluoromethoxy)phenoxy)-N-(2-oxo-1,2-dihydropyridin-4-yl)-5-(trifluoromethyl)benzamide]
44 | 79 | 70 | Cc1ccccc1Oc1ccc(C(F)(F)F)cc1C(=O)Nc1cc[nH]c(=O)c1 [Compound 28, N-(2-oxo-1,2-dihydropyridin-4-yl)-2-(o-tolyloxy)-5-(trifluoromethyl)benzamide]
50 | 97 | 99 | O=C(Nc1cc[nH]c(=O)c1)c1ccc(C(F)(F)F)cc1Oc1ccc(F)cc1F [Compound 7, 2-(2,4-difluorophenoxy)-N-(2-oxo-1,2-dihydropyridin-4-yl)-4-(trifluoromethyl)benzamide]
19 | 103 | 100 | O=C(Nc1cc[nH]c(=O)c1)c1cc(F)c(Cl)cc1Oc1ccc(F)cc1Cl [Compound 109, 4-chloro-2-(2-chloro-4-fluorophenoxy)-5-fluoro-N-(2-oxo-1,2-dihydropyridin-4-yl)benzamide]
7 | 102 | 95 | COc1ccc(Oc2cc(Cl)c(Cl)cc2C(=O)Nc2cc[nH]c(=O)c2)cc1F [Compound 115, 4,5-dichloro-2-(3-fluoro-4-methoxyphenoxy)-N-(2-oxo-1,2-dihydropyridin-4-yl)benzamide]
44 | 103 | 100 | O=C(Nc1cc[nH]c(=O)c1)c1c(Oc2ccc(F)cc2F)cc(C(F)(F)F)cc1C(F)(F)F [Compound 152, 2-(2,4-difluorophenoxy)-N-(2-oxo-1,2-dihydropyridin-4-yl)-4,6-bis(trifluoromethyl)benzamide]

Structure (SMILES) | IC50 (human Nav1.8) [nM] | HLM (% remaining @ 30 minutes) [1] [%] | RLM (% remaining @ 30 minutes) [2] [%]
Cc1cc(F)ccc1Oc1ccc(C(F)(F)F)cc1C(=O)Nc1cc[nH]c(=O)c1 [Compound 31, 2-(4-fluoro-2-methylphenoxy)-N-(2-oxo-1,2-dihydropyridin-4-yl)-5-(trifluoromethyl)benzamide] | 17 | 92 | 91
O=C(Nc1cc[nH]c(=O)c1)c1ccc(C(F)(F)F)cc1OCCCC(F)(F)F [Compound 123, N-(2-oxo-1,2-dihydropyridin-4-yl)-2-(4,4,4-trifluorobutoxy)-4-(trifluoromethyl)benzamide] | 355 | 103 | 98

— patent US9051270B2, “Pyridone amides as modulators of sodium channels” (Vertex Pharmaceuticals Incorporated, priority 2013, dated 2015)
